Key:
[1] = target: T1, Recombinant STAT3 protein (STAT3(G127-I722)) (Homo sapiens, UniProt P40763); assay: STAT3 Fluorescence Polarization (FP) Assay; format: binding; settings: STAT3(G127-I722) 25 nM, probe 5-FAM-GpYLPQTV-NH2 2 nM, 45-minute incubation
T1 construct: STAT3(G127-I722)
Method in brief: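 STAT3(G127-I722) at 25 nM and 5-FAM-GpYLPQTV-NH2 probe at 2 nM in HEPES pH 7.4 buffer with NaCl, EDTA, Tween 20, DTT; 1% DMSO. FP read after 45 min at room temperature; IC50 by nonlinear regression of mP vs log concentration, binned A ≤100 nM to D >10 μM.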

[2] = target: T2, Recombinant STAT6 protein (STAT6(W123-T658)) (Homo sapiens, UniProt P42226); assay: STAT6 Fluorescence Polarization (FP) Assay; format: binding; settings: STAT6(W123-T658) 250 nM, probe 5-FAM-ApYKPFQDLI-NH2 2 nM, 45-minute incubation
T2 construct: STAT6(W123-T658)
T2 sequence (P42226 123-658): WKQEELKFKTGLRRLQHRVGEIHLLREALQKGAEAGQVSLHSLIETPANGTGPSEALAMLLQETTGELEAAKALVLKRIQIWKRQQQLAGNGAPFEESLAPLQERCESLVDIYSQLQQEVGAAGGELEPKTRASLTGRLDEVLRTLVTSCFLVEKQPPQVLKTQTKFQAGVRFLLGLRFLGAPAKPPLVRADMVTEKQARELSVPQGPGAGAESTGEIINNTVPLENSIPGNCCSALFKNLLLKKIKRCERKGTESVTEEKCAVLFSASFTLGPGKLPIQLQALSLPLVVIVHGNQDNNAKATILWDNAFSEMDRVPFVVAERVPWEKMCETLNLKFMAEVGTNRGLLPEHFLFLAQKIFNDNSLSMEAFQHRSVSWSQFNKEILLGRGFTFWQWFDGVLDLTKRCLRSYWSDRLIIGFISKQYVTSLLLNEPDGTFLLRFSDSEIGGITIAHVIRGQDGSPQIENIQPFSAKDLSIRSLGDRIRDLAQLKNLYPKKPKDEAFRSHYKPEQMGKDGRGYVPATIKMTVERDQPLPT
Method in brief: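 STAT6 (W123-T658) at 250 nM mixed with 2 nM 5-FAM-ApYKPFQDLI-NH2 probe in HEPES pH 7.4 buffer with DTT and Tween 20, 1% DMSO final. Polarization read after 45 min at room temperature; IC50 by nonlinear regression of mP versus log concentration, reported in bins A–D.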

T1 sequence (P40763 127-722, species assumed): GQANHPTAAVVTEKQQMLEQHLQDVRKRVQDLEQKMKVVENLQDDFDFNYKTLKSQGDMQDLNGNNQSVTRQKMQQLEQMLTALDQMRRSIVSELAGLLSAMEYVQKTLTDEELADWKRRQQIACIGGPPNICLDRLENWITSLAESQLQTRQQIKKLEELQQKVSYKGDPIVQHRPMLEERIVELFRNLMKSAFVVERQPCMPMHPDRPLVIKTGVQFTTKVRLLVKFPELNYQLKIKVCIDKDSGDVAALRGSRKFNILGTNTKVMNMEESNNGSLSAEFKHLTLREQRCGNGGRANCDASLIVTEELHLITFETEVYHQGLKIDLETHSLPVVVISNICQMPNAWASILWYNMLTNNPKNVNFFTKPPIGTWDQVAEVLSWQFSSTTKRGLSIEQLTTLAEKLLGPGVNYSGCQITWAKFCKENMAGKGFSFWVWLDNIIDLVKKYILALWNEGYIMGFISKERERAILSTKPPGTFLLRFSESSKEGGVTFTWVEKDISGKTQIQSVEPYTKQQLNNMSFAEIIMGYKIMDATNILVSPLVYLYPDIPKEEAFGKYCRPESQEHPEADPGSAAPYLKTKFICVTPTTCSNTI

| IC50 [1] [µM] | IC50 [2] [µM] | SMILES |
| --- | --- | --- |
| < 0.1 | 3 to 30 | COC1CN(C(=O)C2CN(C(=O)[C@@H]3CC[C@@H]4C[C@H]5C[C@H]5C[C@H](NC(=O)c5cc6cc(C(F)(F)P(=O)(O)O)ccc6s5)C(=O)N43)C2)C1 [Compound 102, (difluoro(2-(((3S,6S,7aS,8aR,9aR)-3-(3-(3-methoxyazetidine-1-carbonyl)azetidine-1-carbonyl)-5-oxodecahydro-1H-cyclopropa[d]pyrrolo[1,2-a]azocin-6-yl)carbamoyl)benzo[b]thiophen-5-yl)methyl)phosphonic acid] |
| 0.1 to 1 | 0.3 to 3 | O=C(N[C@H]1C[C@@H]2C[C@@H]2C[C@H]2CC[C@@H](C(=O)N3CC(c4nn[nH]n4)C3)N2C1=O)c1cc2cc(C(F)(F)P(=O)(O)O)ccc2s1 [Compound 103, ((2-(((3S,6S,7aS,8aR,9aR)-3-(3-(2H-tetrazol-5-yl)azetidine-1-carbonyl)-5-oxodecahydro-1H-cyclopropa[d]pyrrolo[1,2-a]azocin-6-yl)carbamoyl)benzo[b]thiophen-5-yl)difluoromethyl)phosphonic acid] |
| < 0.1 | 0.3 to 3 | O=C(N[C@H]1C[C@@H]2C[C@@H]2C[C@H]2CC[C@@H](C(=O)N3CCN(C(=O)c4cn[nH]c4)CC3)N2C1=O)c1cc2cc(C(F)(F)P(=O)(O)O)ccc2s1 [Compound 104, ((2-(((3S,6S,7aS,8aR,9aR)-3-(4-(1H-pyrazole-4-carbonyl)piperazine-1-carbonyl)-5-oxodecahydro-1H-cyclopropa[d]pyrrolo[1,2-a]azocin-6-yl)carbamoyl)benzo[b]thiophen-5-yl)difluoromethyl)phosphonic acid] |
| 0.1 to 1 | 0.3 to 3 | O=C(N[C@H]1C[C@@H]2C[C@@H]2C[C@H]2CC[C@@H](C(=O)N3CCN(C(=O)c4cc[nH]n4)CC3)N2C1=O)c1cc2cc(C(F)(F)P(=O)(O)O)ccc2s1 [Compound 105, ((2-(((3S,6S,7aS,8aR,9aR)-3-(4-(1H-pyrazole-3-carbonyl)piperazine-1-carbonyl)-5-oxodecahydro-1H-cyclopropa[d]pyrrolo[1,2-a]azocin-6-yl)carbamoyl)benzo[b]thiophen-5-yl)difluoromethyl)phosphonic acid] |
| < 0.1 | 3 to 30 | O=C(N[C@H]1C[C@H]2C[C@H]2C[C@H]2CC[C@@H](C(=O)N3CC(n4ccnc4)C3)N2C1=O)c1cc2cc(C(F)(F)P(=O)(O)O)ccc2s1 [Compound 107, ((2-(((3S,6S,7aR,8aS,9aR)-3-(3-(1H-imidazol-1-yl)azetidine-1-carbonyl)-5-oxodecahydro-1H-cyclopropa[d]pyrrolo[1,2-a]azocin-6-yl)carbamoyl)benzo[b]thiophen-5-yl)difluoromethyl)phosphonic acid] |
| < 0.1 | 3 to 30 | O=C(N[C@H]1C[C@@H]2C[C@@H]2C[C@H]2CC[C@@H](C(=O)N3CC(N4CCS(=O)(=O)CC4)C3)N2C1=O)c1cc2cc(C(F)(F)P(=O)(O)O)ccc2s1 [Compound 108, ((2-(((3S,6S,7aS,8aR,9aR)-3-(3-(1,1-dioxidothiomorpholino)azetidine-1-carbonyl)-5-oxodecahydro-1H-cyclopropa[d]pyrrolo[1,2-a]azocin-6-yl)carbamoyl)benzo[b]thiophen-5-yl)difluoromethyl)phosphonic acid] |
| < 0.1 | 3 to 30 | O=C(N[C@H]1C[C@@H]2C[C@@H]2C[C@H]2CC[C@@H](C(=O)N3CC(C(=O)N4CC[C@@H](O)C4)C3)N2C1=O)c1cc2cc(C(F)(F)P(=O)(O)O)ccc2s1 [Compound 109, (difluoro(2-(((3S,6S,7aS,8aR,9aR)-3-(3-((R)-3-hydroxypyrrolidine-1-carbonyl)azetidine-1-carbonyl)-5-oxodecahydro-1H-cyclopropa[d]pyrrolo[1,2-a]azocin-6-yl)carbamoyl)benzo[b]thiophen-5-yl)methyl)phosphonic acid] |

Reference: US20250215030A1, “STAT MODULATORS AND USES THEREOF” (Recludix Pharma, Inc., priority 2022, published 2025)
